Values of other authors, collected in patent US20230355643A1, “SOLVENT DELIVERY SYSTEM FOR TOPICAL DELIVERY OF ACTIVE AGENTS” (Timber Pharmaceuticals, Inc., priority 2019, published 2023).

Conditions: log10 of organic solvent (such as octanol)/aqueous solvent partition coefficient
In the case of `CN(C)CCC(c1ccc(Br)cc1)c1ccccn1` (stereo not drawn) [brompheniramine], the logP is given as 3.4. In the case of `C=C1/C(=C\C=C2/CCC[C@]3(C)[C@@H]([C@H](C)/C=C/[C@@H](O)C4CC4)CC[C@@H]23)C[C@@H](O)C[C@@H]1O` [calcipotriol], the logP is listed as about 3.84. For `CN(C)CCC(c1ccc(Cl)cc1)c1ccccn1` (stereo not drawn) [chlorpheniramine], the logP is given as about 3.38. In the case of `CN1CCC[C@@H]1CCO[C@](C)(c1ccccc1)c1ccc(Cl)cc1` [clemastine], the logP is listed as about 5.2. In the case of `O=C(O)c1cc(-c2ccc(F)cc2F)ccc1O` [diflunisal], the logP is given as 4.44. In the case of `CC(C)(C)c1ccc(C(=O)CCCN2CCC(OC(c3ccccc3)c3ccccc3)CC2)cc1` [ebastine], the logP is listed as 6.96. For `Clc1ccc(COC(Cn2ccnc2)c2ccc(Cl)cc2Cl)cc1` (stereo not drawn) [econazole], the logP is listed as about 5.5. In the case of `Cc1ccc(-c2ncc(Cl)cc2-c2ccc(S(C)(=O)=O)cc2)cn1` [etoricoxib], the logP is given as about 3.7. In the case of `CC(C(=O)O)c1cccc(Oc2ccccc2)c1` (stereo not drawn) [fenoprofen], the logP is listed as about 3.1. For `CC(C(=O)O)c1ccc(-c2ccccc2)c(F)c1` (stereo not drawn) [flurbiprofen], the logP is given as about 4.16. In the case of `COc1ccc2c(c1)c(CC(=O)O)c(C)n2C(=O)c1ccc(Cl)cc1` [indometocin], the logP is listed as about 4.27. For `CC(C(=O)O)c1cccc(C(=O)c2ccccc2)c1` (stereo not drawn) [ketoprofen], the logP is listed as ~3,12. In the case of `Cc1cccc(Nc2ccccc2C(=O)O)c1C` [mefenamic acid], the logP is listed as about 5.12. In the case of `Clc1ccc(COC(Cn2ccnc2)c2ccc(Cl)cc2Cl)c(Cl)c1` (stereo not drawn) [miconazole], the logP is given as about 6.1. In the case of `Clc1ccc(CO/N=C(\Cn2ccnc2)c2ccc(Cl)cc2Cl)c(Cl)c1` [oxiconazole], the logP is given as about 5.84. For `CN1C(C(=O)Nc2ccccn2)=C(O)c2ccccc2S1(=O)=O` [piroxicam], the logP is given as about 3.06. For `O=C(Oc1ccccc1C(=O)O)c1ccccc1O` [salsalate], the logP is given as about 3.44. In the case of `CCOC(=O)c1ccc(C#Cc2ccc3c(c2)C(C)(C)CCS3)nc1` [tazarotene, ethyl 6-[2-(4,4-dimethyl-2,3-dihydrothiochromen-6-yl)ethynyl]pyridine-3-carboxylate], the logP is listed as about 5.6. For `Cc1onc(-c2ccccc2)c1-c1ccc(S(N)(=O)=O)cc1` [valdecoxib], the logP is given as about 3.32. For ivermectin, the logP is given as about 5.83. In the case of texaphyrin, the logP is listed as about 6.76.
